Laboratory results from patent US20230000842A1, “METHODS OF TREATING CARTILAGE DISORDERS THROUGH INHIBITION OF CLK AND DYRK” (SAMUMED, LLC, priority 2019, published 2023).

Assays:
CLK3 kinase = CLK3 kinase (Homo sapiens, UniProt P49761); experiment: CLK3 kinase activity assay (Z-lyte FRET); format: biochemical; settings: Z-lyte Ser/Thr 18 peptide, 156 μM ATP, 1 h at room temperature;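 also: kinase activity read as coumarin/fluorescein emission ratio by FRET, unphosphorylated peptide as 0% and phosphorylated peptide as 100% control, values from non-linear regression of dose-response curves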
CLK3 kinase, sequence (P49761 whole entry): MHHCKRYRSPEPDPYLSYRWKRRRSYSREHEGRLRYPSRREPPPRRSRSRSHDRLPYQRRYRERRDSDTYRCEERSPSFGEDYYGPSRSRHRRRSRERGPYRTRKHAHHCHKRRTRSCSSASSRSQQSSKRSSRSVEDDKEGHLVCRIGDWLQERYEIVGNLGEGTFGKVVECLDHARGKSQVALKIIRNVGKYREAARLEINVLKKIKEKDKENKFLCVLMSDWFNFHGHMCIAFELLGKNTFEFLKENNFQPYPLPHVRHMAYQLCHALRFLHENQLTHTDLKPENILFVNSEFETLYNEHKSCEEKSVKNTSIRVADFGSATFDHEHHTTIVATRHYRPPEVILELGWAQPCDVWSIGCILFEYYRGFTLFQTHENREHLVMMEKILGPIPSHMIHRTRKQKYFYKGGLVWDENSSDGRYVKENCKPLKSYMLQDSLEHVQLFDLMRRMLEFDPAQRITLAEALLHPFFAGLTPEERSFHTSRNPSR

[1] = system: MMP-3 levels in supernatant of chondrocytes stimulated with IL1-β; experiment: Chondrocyte protection assay compound screening (MMP-3 LANCE Ultra); format: cell-based, human; settings: Homo sapiens, Chondrocyte, IL1-β 10 ng/mL overnight, 11-point curves from 3 μM to 0.05 nM; for Emax: read-out: Maximum % Inhibition
Outline: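 Primary human chondrocytes (passage 2–5) in differentiation medium were stimulated with 10 ng/mL IL1-β for an overnight incubation at 37 °C. MMP-3 in 1:7-diluted supernatant was read by TR-FRET immunoassay against a standard curve, normalised to IL1-β-stimulated wells; EC50 and maximum % inhibition came from nonlinear regression.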

[2] = system: Wnt pathway activity (SW480 colon carcinoma cells stably expressing the Sp5-Luc reporter); experiment: Wnt pathway activity screening assay (Sp5-Luc reporter gene assay); settings: Homo sapiens, SW480, Table 4; SW480 cells stably expressing Sp5-Luc reporter, 10-point dose-response from 10 μM, 36 to 48 hours
Method: The screening assay for Wnt pathway activity is described as follows.
SW480 colon carcinoma cells were transduced with a lentiviral vector expressing luciferase with a human Sp5 promoter consisting of a sequence of eight TCF/LEF binding sites. […] These stably transduced SW480 cells were expanded in cell culture and used for all further screening activities. Each compound was dissolved in DMSO as a 10 mM stock and used to prepare compound source plates. Serial dilution (1:3, 10-point dose-response curves starting from 10 μM) and compound transfer was performed using the ECHO 550 (Labcyte, Sunnyvale, Calif.) into 384-well white solid bottom assay plates (Greiner Bio-One) with appropriate DMSO backfill for a final DMSO concentration of 0.1%. […] Following incubation, 15 μl of BriteLite Plus luminescence reagent (Perkin Elmer) was added to each well of the 384-well assay plates. The plates were placed on an orbital shaker for 2 min and then luminescence was quantified using the Envision (Perkin Elmer) plate reader.

[3] = system: primary human mesenchymal stem cells (hMSCs); experiment: Chondrogenesis screening using primary human mesenchymal stem cells; format: cell-based; settings: Homo sapiens, Mesenchymal stem cells, hMSC chondrogenesis; for EC50: concentration required to induce 50% levels of chondrogenesis with TGF-β3 as positive control, read-out: Conc (nM) of 50% TGF-β3 activity; for Emax: maximum activity relative to TGF-β3 (10 ng/mL) positive control, read-out: Max. Activity as % TGF-β3 activity
Outline: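 Derived values are EC50 for 50% chondrogenesis, maximal activity and the dose giving it. These come from nodule area in passage 3–6 primary hMSCs, expressed as fold change over the mean of 3 same-plate DMSO wells, 2–3 replicates per concentration. TGF-β3 served as positive control.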

CLK2 kinase = CLK2 kinase (Homo sapiens, UniProt P49760); experiment: CLK2 kinase activity assay (Z-lyte FRET); format: biochemical; settings: Z-lyte Ser/Thr 6 peptide, 60 μM ATP, 1 h at room temperature;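 also: FRET read-out as coumarin to fluorescein emission ratio, unphosphorylated peptide as 0% and phosphorylated peptide as 100% controls, duplicate reactions, non-linear regression fit of dose-response curves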
CLK2 kinase, sequence (P49760 whole entry): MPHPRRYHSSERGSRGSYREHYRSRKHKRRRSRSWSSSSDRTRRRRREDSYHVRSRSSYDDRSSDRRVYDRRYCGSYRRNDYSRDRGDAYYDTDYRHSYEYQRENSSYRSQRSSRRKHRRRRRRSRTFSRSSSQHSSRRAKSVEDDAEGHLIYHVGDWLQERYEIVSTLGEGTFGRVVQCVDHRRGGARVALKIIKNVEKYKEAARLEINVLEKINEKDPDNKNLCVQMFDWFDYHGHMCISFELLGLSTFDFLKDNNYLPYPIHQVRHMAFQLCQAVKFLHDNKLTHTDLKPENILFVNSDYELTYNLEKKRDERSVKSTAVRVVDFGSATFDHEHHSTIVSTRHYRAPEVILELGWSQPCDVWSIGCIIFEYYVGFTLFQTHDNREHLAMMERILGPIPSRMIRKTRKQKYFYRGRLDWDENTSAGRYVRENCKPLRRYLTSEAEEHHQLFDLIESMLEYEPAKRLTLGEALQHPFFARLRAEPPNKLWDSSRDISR

SMILES	EC50 (CLK3 kinase) [nM]	EC50 [2] [nM]	EC50 [3] [nM]	EC50 (CLK2 kinase) [nM]	EC50 [1] [nM]	Emax [1] [%]	Emax [3] [%]
Fc1ccc(-c2nnc(-c3n[nH]cc3/C=C/c3cccnc3)o2)cc1 [compound 23]	627	1510		27	≥ 3000	51.7	23.4
CN1CCN(c2nccc3[nH]c(-c4n[nH]cc4/C=C/c4cncc(F)c4)nc23)CC1 [compound 25]	326	325		1	≥ 3000	91.9	39
CC(C)N1CCC(c2nc(C(=O)Nc3cc4cc(-c5cnn(C)c5)ccc4cn3)co2)CC1 [compound 563]	26	80		5	57.3	72.4	
CN(C)C1CN(c2ncc(C(=O)Nc3cc4cc(-c5cnn(C)c5)ccc4cn3)s2)C1 [compound 564]	37	1320		2	71.4	0	
CO[C@H]1CC[C@H](C(=O)Nc2cc3cc(-c4cnn(C)c4CN4CCCCC4)ccc3cn2)CC1 [compound 569]	164	471		8	≥ 3000	0.2	
Cn1ncc(-c2ccc3cnc(NC(=O)C4CCN(C(=O)c5ccccc5)CC4)cc3c2)c1CN1CCCCC1 [compound 571]	318	706		7	35	51	
CC(C)N1CCC(n2cc(C(=O)Nc3cc4cc(-c5cn(C)nn5)ccc4cn3)cn2)CC1 [compound 579]	19	32.7		2	492	91	
Cc1nnc(C(=O)Nc2cc3cc(-c4cncn4C)ccc3cn2)s1 [compound 584]	177	1890		6	71.5	38.6	
CC(C)n1cc(C(=O)Nc2cc3cc(-c4cncn4C)ccc3cn2)cn1 [compound 585]	13	34.8		1	1430	77.9	
CC(C)n1cc(C(=O)Nc2cc3cc(-c4cncn4C(C)C)ccc3cn2)cn1 [compound 586]	23	115		7	4.6	41.7	
Cc1ncc(-c2ccc3cnc(NC(=O)C4(F)CC4)cc3c2)n1C [compound 587]	678	2210		8	18.7		
Cc1ncc(C(=O)Nc2cc3cc(-c4cnc(C)n4C)ccc3cn2)s1 [compound 589]	31	102		2	≥ 3000	43.5	
CN1CCN(c2cc(C(=O)Nc3cc4cc(-c5ccc(N)nc5)ccc4cn3)ccn2)CC1 [compound 596]	42	710		1	798	39.9	
CN1CCC(n2cc(C(=O)Nc3cc4cc(-c5cnc6cc[nH]c6c5)ccc4cn3)cn2)CC1 [compound 605]	9	26.8		2	≥ 3000	59.9	
CN1CCN(c2cc(C(=O)Nc3cc4nc(-c5cnn(C)c5)ccc4cn3)ccn2)CC1 [compound 606]	60	102		4	≥ 3000	76.1	
CN1CCN(c2cc(C(=O)Nc3ncc4ccc(-c5cnn(C)c5)cc4n3)ccn2)CC1 [compound 607]	135	468		6	417	79.7	
Cn1cc(-c2ccc3cnc(NC(=O)c4ccc5nccnc5c4)cc3n2)cn1 [compound 608]	141	447		8	≥ 3000	18.3	
Cc1ncc(C(=O)Nc2cc3nc(-c4cnc(C)n4C)ccc3cn2)s1 [compound 611]	31	107		3	8.7	68.3	
CN1CC=C(c2cc(C(=O)Nc3cc4cc(-c5cncc(NC(C)(C)C)n5)cnc4cn3)ccn2)CC1 [compound 612]	12	357		5	≥ 3000	38.6	

Now from value to compound, other results behind:

EC50 (CLK3 kinase) [nM]	EC50 [2] [nM]	EC50 [3] [nM]	EC50 (CLK2 kinase) [nM]	SMILES	EC50 [1] [nM]	Emax [1] [%]	Emax [3] [%]
1780	90.3	2700	6	CC(C)Oc1cncc(C(=O)Nc2c[nH]nc2C(=O)Nc2ccc(OC3CCN(C)CC3)nc2)c1 [compound 10]	1.5	46.9	140
6020	2220		6	O=C(Nc1c[nH]nc1C(=O)Nc1ccc(N2CCC(F)(F)C2)nc1)c1cncc(OC2CCNCC2)c1 [compound 12]	280	88.7	75.2
4300	1600		10	O=C(Nc1c[nH]nc1C(=O)Nc1cncc(-c2cccc(F)c2)c1)c1cncc(OC2CCNCC2)c1 [compound 14]	339	71.9	89.5
2670	988	900	17	O=C(Nc1ccc(CN2CCCC2)cc1)c1n[nH]cc1/C=C/c1cccnc1 [compound 17]	3.7	64.7	194
21	65.6		1	CN1CCC(Nc2cc(C(=O)Nc3cc4cc(-c5cnn(C)c5)ccc4cn3)ccn2)CC1 [compound 555]	≥ 3000	85.1	
20	54.5		1	CC(C)OC(=O)N1CCC(n2cc(C(=O)Nc3cc4cc(-c5cnn(C)c5)ccc4cn3)cn2)CC1 [compound 562]	88.1	34.8	
143	594		9	Cn1ncc(-c2ccc3cnc(NC(=O)[C@H]4CC[C@H](CO)CC4)cc3c2)c1CN1CCCCC1 [compound 570]	≥ 3000	80.6	
200	375		2	O=C(Nc1cc2cc(-c3cnn4c3CCNC4)ccc2cn1)c1ccc(OC(F)F)cc1 [compound 574]	1920	59.5	
94	382		9	O=C(Nc1cc2cc(-c3cncc(CN4CCC(O)CC4)c3)ccc2cn1)c1ccc(F)cc1 [compound 597]	2.9	3.7	
11	132		2	CC(C)Nc1cncc(-c2ccc3cnc(NC(=O)c4cccc(C5CCN(C)CC5)c4)cc3c2)n1 [compound 599]	≥ 3000	66.4	
59	319		2	O=C(Nc1cc2cc(-c3cncc(NC4CCNCC4)n3)ccc2cn1)C1CCCCC1 [compound 601]	≥ 3000	91.6	
18	119		2	O=C(Nc1cc2cc(-c3cncc(NCC4(F)CNC4)n3)ccc2cn1)C1CC1 [compound 602]	897	99.5	
7	13.3		2	CN1CCC(n2cc(C(=O)Nc3cc4cc(-c5cncc6[nH]ccc56)ccc4cn3)cn2)CC1 [compound 604]	40.1	57.4	
61	824		6	CC(C)OC(=O)N1CCC(n2cc(C(=O)Nc3cc4cc(-c5cnn(C)c5)ncc4cn3)cn2)CC1 [compound 609]	154	50.2	
31	607		9	CN1CCC2(CC1)CN(c1cc(C(=O)Nc3cc4cc(-c5cnn(C)c5CN5CCCCC5)cnc4cn3)ccn1)C2 [compound 610]	≥ 3000	30.4	
133	3640		7	O=C(Nc1cc2cc(-c3cncc(NC4CCNCC4)n3)ncc2cn1)C1CCOCC1 [compound 613]	46.6	51.4	
97	164		7	CC(C)n1cc(C(=O)Nc2cc3cc(-c4cncc(NC5CCN(C)CC5)n4)ncc3cn2)cn1 [compound 614]	≥ 3000	41.1	
19	1400		6	CN1CCC(n2cc(C(=O)Nc3ncc4ccc(-c5cncc6[nH]ccc56)cc4n3)cn2)CC1 [compound 616]	≥ 3000	48.3	
